The source made the active and inactive calls. The rule behind the calls is not given here.
Key:
MDA-MB-231 [1] = assay: Induction of cell cycle arrest in human MDA-MB-231 cells assessed as accumulation of cells at S phase at 0.5 to 1.5 uM measured after 48 hrs by 7-aminoactinomycin D/RNase staining based flow cytometry analysis (reference value: 23.4%); assay type: functional; settings: dose 0.5-1.5 µM
MDA-MB-231 [2] = assay: Antitumor activity against human MDA-MB-231 cells xenografted in female Balb/c mouse assessed as inhibition of tumor cell proliferation at 5 mg/kg, iv administered via tail vein every 2 days for 16 days by TUNEL assay; assay type: functional, organism-based; settings: time 16.0 day
Quadruplex DNA [3] = assay: Binding affinity to CKIT-2 G4 DNA (unknown origin) assessed as change in enthalpy at 400 uM by ITC analysis; assay type: nucleic-acid assay
MDA-MB-231 [4] = assay: Disruption of energy metabolism in human MDA-MB-231 cells assessed as reduction in cellular energy production by measuring reduction in oxygen consumption rate at 1.5 uM measured after 2 hrs by Seahorse XF24 analyzer; assay type: functional, cell-based
Quadruplex DNA [5] = assay: Binding affinity to hTERT G4 DNA assessed as change in enthalpy at 400 uM by ITC analysis; assay type: nucleic-acid assay; settings: Homo sapiens
Quadruplex DNA [6] = assay: Binding affinity to Telo21 G4 DNA (unknown origin) assessed as change in enthalpy at 400 uM by ITC analysis; assay type: nucleic-acid assay
MDA-MB-231 [7] = assay: Antitumor activity against human MDA-MB-231 cells xenografted in female Balb/c mouse assessed as reduction in tumor weight at 2 mg/kg, iv administered via tail vein every 2 days for 16 days relative to control; assay type: functional; parameters: scale not given: the % may be the effect or the level left; settings: time 16 day
MDA-MB-231 [8] = assay: Inhibition of cell migration in human MDA-MB-231 cells at 0 to 1.5 uM measured after 48 hrs by crystal violet staining based microscopic analysis; assay type: functional; settings: dose 0-1.5 µM
[9] = Toxicity in female Balb/c nude mouse xenografted with human MDA-MB-231 cells assessed as change in blood urea nitrogen level at 2 to 5 mg/kg, iv administered via tail vein every 2 days for 16 days; assay type: organism-based; settings: in vivo, 384 h, dose 2-5 mg/kg, time 16 day
[10] = Toxicity in female Balb/c nude mouse xenografted with human MDA-MB-231 cells assessed as change in platelet count at 2 to 5 mg/kg, iv administered via tail vein every 2 days for 16 days; assay type: organism-based; settings: in vivo, 384 h, dose 2-5 mg/kg, time 16 day
[11] = Toxicity in female Balb/c nude mouse xenografted with human MDA-MB-231 cells assessed as pathological changes in lung at 2 to 5 mg/kg, iv administered via tail vein every 2 days for 16 days by H and E staining based analysis; assay type: organism-based; settings: in vivo, 384 h, dose 2-5 mg/kg, time 16 day
Quadruplex DNA [12] = assay: Binding affinity to human TERT G4 DNA assessed as adduct formation by measuring appearance of new peak at 5 uM by ultraviolet spectrophotometric titration method; assay type: nucleic-acid assay
[13] = Upregulation of SAT2 gene expression in human MDA-MB-231 cells assessed as fold change at 1 uM measured after 48 hrs by RNA-seq analysis relative to control; assay type: functional
Homo sapiens [14] = species: Homo sapiens; assay: Binding affinity to antisense i-hTERT DNA assessed as change in gibbs free energy at 400 uM by ITC analysis
MDA-MB-231 [15] = assay: Induction of mitochondrial dysfunction in human MDA-MB-231 cells assessed as downregulation of mitochondrial respiratory complex IV-COX II expression incubated for 48 hrs by Western blot analysis; assay type: functional, cell-based; settings: dose 0-1.5 µM
[16] = Upregulation of PLK4 gene expression in human MDA-MB-231 cells assessed as fold change at 1 uM measured after 48 hrs by RNA-seq analysis relative to control; assay type: functional
[17] = Toxicity in female Balb/c nude mouse xenografted with human MDA-MB-231 cells assessed as change in lymphocyte count at 2 to 5 mg/kg, iv administered via tail vein every 2 days for 16 days; assay type: organism-based; settings: in vivo, 384 h, dose 2-5 mg/kg, time 16 day
[18] = Toxicity in female Balb/c nude mouse xenografted with human MDA-MB-231 cells assessed as pathological changes in heart at 2 to 5 mg/kg, iv administered via tail vein every 2 days for 16 days by H and E staining based analysis; assay type: organism-based; settings: in vivo, 384 h, dose 2-5 mg/kg, time 16 day
Quadruplex DNA [19] = assay: Binding affinity to RET G4 DNA (unknown origin) assessed as thermal stability by measuring change in melting temperature at 400 uM […]; assay type: nucleic-acid assay
Quadruplex DNA [20] = assay: Binding affinity to c-MYC Pu27 G4 DNA (unknown origin) assessed as change in enthalpy at 400 uM by ITC analysis; assay type: nucleic-acid assay
[21] = Toxicity in female Balb/c nude mouse xenografted with human MDA-MB-231 cells assessed as change in granulocyte count at 2 to 5 mg/kg, iv administered via tail vein every 2 days for 16 days; assay type: organism-based; settings: in vivo, 384 h, dose 2-5 mg/kg, time 16 day
MDA-MB-231 [22] = assay: Downregulation of LC3-I protein expression in human MDA-MB-231 cells at 0 to 1.5 uM measured after 48 hrs by Western blot analysis; assay type: functional, cell-based; settings: dose 0-1.5 µM
MDA-MB-231 [23] = assay: Disruption of energy metabolism in human MDA-MB-231 cells assessed as reduction in cellular energy production by measuring reduction in ATP production at 0 to 1.5 uM measured after 2 hrs by Seahorse XF24 analyzer; assay type: functional, cell-based; settings: dose 0-1.5 µM
[24] = Binding affinity to antisense i-hTERT DNA assessed as dissociation constant by ITC analysis; parameters: species or system Homo sapiens
[25] = Toxicity in female Balb/c nude mouse xenografted with human MDA-MB-231 cells assessed as change in uric acid level at 2 to 5 mg/kg, iv administered via tail vein every 2 days for 16 days; assay type: organism-based; settings: in vivo, 384 h, dose 2-5 mg/kg, time 16 day
[26] = Cytotoxicity against human HK-2 cells assessed as inhibition of cell growth incubated for 48 hrs by MTT assay; assay type: toxicity, cell-based
U2OS = assay: Cytotoxicity against alternative lengthening of telomere-positive human U2OS cells assessed as inhibition of cell growth incubated for 48 hrs by MTT assay; assay type: functional, cell-based
[27] = Selectivity ratio of binding affinity to human TERT G4 DNA to binding affinity to Bcl-2 G4 DNA (unknown origin)
MDA-MB-231 [28] = assay: Induction of autophagy in human MDA-MB-231 cells assessed as upregulation of LC3-II protein expression at 0 to 1.5 uM measured after 48 hrs by Western blot analysis; assay type: functional, cell-based; settings: dose 0-1.5 µM
Homo sapiens [29] = species: Homo sapiens; assay: Selectivity ratio of binding affinity to human TERT G4 DNA to binding affinity to antisense i-hTERT DNA
DNA = assay: Binding affinity to Ds26 duplex DNA (unknown origin) assessed as change in enthalpy at 400 uM by ITC analysis; assay type: nucleic-acid assay
MDA-MB-231 [30] = assay: Inhibition of hTERT expression at transcriptional level in human MDA-MB-231 cells at 1 uM measured after 48 hrs by RNA-seq analysis; assay type: functional, cell-based

- deltaH (Quadruplex DNA [3]): -1.59 kcal/mol
- deltaH (Quadruplex DNA [5]): -2.72 kcal/mol
- deltaH (Quadruplex DNA [6]): -1.09 kcal/mol
- Activity (Quadruplex DNA [12]): Active
- deltaG (Homo sapiens [14]): -7.58 kcal/mol
- ΔTm (Quadruplex DNA [19]): 0.96 °C
- deltaH (Quadruplex DNA [20]): -2.44 kcal/mol
- Kd [24]: 2.79 µM
- Selectivity ratio [27]: 2
- Selectivity ratio (Homo sapiens [29]): 3
- deltaH (DNA): -1.32 kcal/mol
SMILES: C[n+]1c(/C=C/c2c[nH]c3ccccc23)cc(/C=C2\Sc3ccccc3N2CCCN2CCC(C(F)(F)F)CC2)c2ccccc21.[I-]
- Activity (MDA-MB-231 [1]): 4.6%
- Activity (MDA-MB-231 [2]): Active
- Activity (MDA-MB-231 [4]): Active
- Activity (MDA-MB-231 [7]): 48.7%
- inhibition (MDA-MB-231 [8]): Active
- Activity [9]: Non-Toxic
- Activity [10]: Non-Toxic
- Activity [11]: Non-Toxic
- fold change (FC) [13]: >2
- Activity (MDA-MB-231 [15]): Dose-Dependent Effect
- fold change (FC) [16]: >2
- Activity [17]: Non-Toxic
- Activity [18]: Non-Toxic
- Activity [21]: Non-Toxic
- Activity (MDA-MB-231 [22]): Active
- Activity (MDA-MB-231 [23]): Active
- Activity [25]: Non-Toxic
- IC50 at 48 h [26]: 9.4 µM
- IC50 (U2OS): 3.9 µM
- Activity (MDA-MB-231 [28]): Active
- inhibition (MDA-MB-231 [30]): Active

From ChEMBL document CHEMBL5550185, “Targeting hTERT Promoter G-Quadruplex DNA Structures with Small-Molecule Ligand to Downregulate hTERT Expression for Triple-Negative Breast Cancer Therapy” (J Med Chem, 2024)
